Experimental data taken from the NIST ThermoML archive (doi:10.1021/je060271a).
“And” between values parts separate entries of the source, which are not always exact repeats. Equal entries are not always repeated.

Conditions: 303.15 K, Liquid, Vibrating tube method

CCCCCC(=O)OCC(COC(=O)CCCCC)(COC(=O)CCCCC)COC(=O)CCCCC [pentaerythritol tetrahexanoate]
Conditions	mass density
12760 kPa	996.5 kg/m3
12780 kPa	996.4 kg/m3
12799 kPa	996.4 kg/m3
12822 kPa	996.5 kg/m3
12861 kPa	996.4 kg/m3
12903 kPa	996.4 kg/m3
12922 kPa	996.5 kg/m3
12946 kPa	996.6 kg/m3
12965 kPa	996.4 kg/m3
12985 kPa	996.5 kg/m3
13005 kPa	996.5 kg/m3
13307 kPa	996.6 kg/m3
13327 kPa	996.7 kg/m3
13352 kPa	996.8 kg/m3
13373 kPa	996.7 kg/m3
13394 kPa	996.7 kg/m3
13419 kPa	996.7 kg/m3
13439 kPa	996.8 kg/m3
13465 kPa	996.9 kg/m3
13486 kPa	996.8 kg/m3
13507 kPa	996.8 kg/m3
13533 kPa	996.8 kg/m3
13554 kPa	996.8 kg/m3
13576 kPa	996.7 kg/m3
13598 kPa	996.9 kg/m3
13624 kPa	996.9 kg/m3
13645 kPa	996.9 kg/m3
13671 kPa	997 kg/m3
13693 kPa	996.8 kg/m3
13715 kPa	996.9 kg/m3
13737 kPa	997 kg/m3
13763 kPa	997 kg/m3
13786 kPa	997 kg/m3
13808 kPa	997 kg/m3
13835 kPa	996.9 kg/m3
13857 kPa	997.1 kg/m3
13880 kPa	997 kg/m3
13902 kPa	997 kg/m3
13929 kPa	997 kg/m3
13952 kPa	997.1 kg/m3
13975 kPa	997.1 kg/m3
14002 kPa	997.2 kg/m3
14025 kPa	997 kg/m3
14052 kPa	997.1 kg/m3
14098 kPa	997.1 kg/m3
14126 kPa	997.1 kg/m3
14149 kPa	997.1 kg/m3
14174 kPa	997.2 kg/m3
14198 kPa	997.1 kg/m3
14222 kPa	997.2 kg/m3
14250 kPa	997.2 kg/m3
14273 kPa	997.2 kg/m3
14301 kPa	997.2 kg/m3
14324 kPa	997.3 kg/m3
14348 kPa	997.3 kg/m3
14371 kPa	997.4 kg/m3
14400 kPa	997.4 kg/m3
14423 kPa	997.3 kg/m3
14447 kPa	997.4 kg/m3
14476 kPa	997.4 kg/m3
14499 kPa	997.4 kg/m3
14522 kPa	997.3 kg/m3
14545 kPa	997.5 kg/m3
14569 kPa	997.4 kg/m3
14596 kPa	997.5 kg/m3
14620 kPa	997.5 kg/m3
14643 kPa	997.6 kg/m3
14671 kPa	997.4 kg/m3
14695 kPa	997.4 kg/m3
14722 kPa	997.4 kg/m3
14746 kPa	997.6 kg/m3
14770 kPa	997.6 kg/m3
14798 kPa	997.6 kg/m3
14823 kPa	997.5 kg/m3
14847 kPa	997.5 kg/m3
14871 kPa	997.6 kg/m3
14900 kPa	997.6 kg/m3
15031 kPa	997.7 kg/m3
15056 kPa	997.7 kg/m3
15080 kPa	997.7 kg/m3
15110 kPa	997.8 kg/m3
15293 kPa	997.8 kg/m3
15647 kPa	998.1 kg/m3
15670 kPa	998.2 kg/m3
15694 kPa	998.1 kg/m3
15716 kPa	998 kg/m3
15743 kPa	998.1 kg/m3
15766 kPa	998.1 kg/m3
15789 kPa	998 kg/m3
15816 kPa	998.1 kg/m3
15838 kPa	998.2 kg/m3
15888 kPa	998.2 kg/m3
15911 kPa	998.2 kg/m3
15933 kPa	998.3 kg/m3
15961 kPa	998.4 kg/m3
15983 kPa	998.3 kg/m3
16011 kPa	998.3 kg/m3
16034 kPa	998.3 kg/m3
16056 kPa	998.4 kg/m3
16083 kPa	998.3 kg/m3
16106 kPa	998.4 kg/m3
16127 kPa	998.2 kg/m3
16149 kPa	998.4 kg/m3
16175 kPa	998.4 kg/m3
16197 kPa	998.3 kg/m3
16218 kPa	998.4 kg/m3
16244 kPa	998.5 kg/m3
16266 kPa	998.4 kg/m3
16288 kPa	998.4 kg/m3
16313 kPa	998.4 kg/m3
16335 kPa	998.5 kg/m3
16357 kPa	998.5 kg/m3
16384 kPa	998.5 kg/m3
16406 kPa	998.7 kg/m3
16427 kPa	998.5 kg/m3
16447 kPa	998.5 kg/m3
16471 kPa	998.6 kg/m3
16491 kPa	998.5 kg/m3
16512 kPa	998.6 kg/m3
16532 kPa	998.5 kg/m3
16557 kPa	998.7 kg/m3
16578 kPa	998.7 kg/m3
16599 kPa	998.5 kg/m3
16624 kPa	998.6 kg/m3
16644 kPa	998.7 kg/m3
16666 kPa	998.7 kg/m3
16687 kPa	998.7 kg/m3
16708 kPa	998.5 kg/m3
16732 kPa	998.7 kg/m3
16752 kPa	998.7 kg/m3
16772 kPa	998.7 kg/m3
16796 kPa	998.7 kg/m3
16840 kPa	998.8 kg/m3
16860 kPa	998.9 kg/m3
16880 kPa	998.8 kg/m3
16904 kPa	998.8 kg/m3
16924 kPa	998.8 kg/m3
16945 kPa	998.9 kg/m3
16966 kPa	998.9 kg/m3
16990 kPa	998.8 kg/m3
17010 kPa	998.9 kg/m3
17035 kPa	999 kg/m3
17056 kPa	999 kg/m3
17077 kPa	999 kg/m3
17098 kPa	999 kg/m3
17124 kPa	999 kg/m3
17144 kPa	998.9 kg/m3
17164 kPa	998.9 kg/m3
17186 kPa	998.9 kg/m3
17201 kPa	998.9 kg/m3
17216 kPa	998.9 kg/m3
17229 kPa	999.1 kg/m3
17243 kPa	999 kg/m3
17245 kPa	999 kg/m3
17247 kPa	999.1 kg/m3
17248 kPa	999.1 kg/m3
17250 kPa	999.1 kg/m3
17251 kPa	999 kg/m3
17252 kPa	999 kg/m3
17253 kPa	999 kg/m3
17254 kPa	999.1 kg/m3
17256 kPa	999 kg/m3
17265 kPa	999 kg/m3
17267 kPa	999.1 kg/m3
17272 kPa	999 kg/m3
17282 kPa	999 kg/m3
17286 kPa	999 kg/m3
17289 kPa	999 kg/m3
17290 kPa	998.9 kg/m3 and 999 kg/m3
17296 kPa	999.1 kg/m3
17310 kPa	999.2 kg/m3
17330 kPa	999.1 kg/m3
17334 kPa	999.1 kg/m3
17348 kPa	999.1 kg/m3
17353 kPa	999 kg/m3
17354 kPa	999.2 kg/m3
17377 kPa	999.2 kg/m3
17400 kPa	999.1 kg/m3
17428 kPa	999.2 kg/m3
17452 kPa	999.1 kg/m3
17475 kPa	999.3 kg/m3
17503 kPa	999.1 kg/m3
17526 kPa	999.1 kg/m3
17550 kPa	999.3 kg/m3
17577 kPa	999.3 kg/m3
17917 kPa	999.3 kg/m3
17939 kPa	999.5 kg/m3
17961 kPa	999.4 kg/m3
17988 kPa	999.5 kg/m3
18010 kPa	999.4 kg/m3
18037 kPa	999.5 kg/m3
18060 kPa	999.6 kg/m3
18083 kPa	999.5 kg/m3
18105 kPa	999.5 kg/m3
18132 kPa	999.4 kg/m3
18155 kPa	999.6 kg/m3
18178 kPa	999.7 kg/m3
18205 kPa	999.6 kg/m3
18228 kPa	999.6 kg/m3
18256 kPa	999.6 kg/m3
18279 kPa	999.6 kg/m3
18302 kPa	999.6 kg/m3
18325 kPa	999.7 kg/m3
18353 kPa	999.6 kg/m3
18377 kPa	999.8 kg/m3
18400 kPa	999.7 kg/m3
18428 kPa	999.7 kg/m3
18452 kPa	999.6 kg/m3
18476 kPa	999.8 kg/m3
18504 kPa	999.8 kg/m3
18528 kPa	999.8 kg/m3
18551 kPa	999.7 kg/m3
18580 kPa	999.9 kg/m3
18604 kPa	1000 kg/m3
18628 kPa	1000 kg/m3
18657 kPa	999.8 kg/m3
18917 kPa	1000 kg/m3
18943 kPa	1000 kg/m3
18968 kPa	999.9 kg/m3
18998 kPa	1000 kg/m3
19024 kPa	1000 kg/m3
19049 kPa	1000.2 kg/m3
19074 kPa	1000 kg/m3
19104 kPa	1000.1 kg/m3
19128 kPa	1000 kg/m3
19154 kPa	1000.1 kg/m3
19177 kPa	1000.1 kg/m3
19199 kPa	1000.2 kg/m3
19226 kPa	1000.2 kg/m3
19249 kPa	1000.3 kg/m3
19273 kPa	1000.2 kg/m3
19296 kPa	1000.3 kg/m3
19323 kPa	1000.1 kg/m3
19346 kPa	1000.2 kg/m3
19374 kPa	1000.3 kg/m3
19397 kPa	1000.3 kg/m3
19420 kPa	1000.3 kg/m3
19443 kPa	1000.3 kg/m3
19471 kPa	1000.3 kg/m3
19495 kPa	1000.2 kg/m3
19518 kPa	1000.3 kg/m3
19546 kPa	1000.4 kg/m3
19570 kPa	1000.4 kg/m3
19595 kPa	1000.3 kg/m3
19618 kPa	1000.4 kg/m3
19642 kPa	1000.4 kg/m3
19670 kPa	1000.4 kg/m3
19694 kPa	1000.4 kg/m3
19718 kPa	1000.6 kg/m3
19747 kPa	1000.4 kg/m3
19771 kPa	1000.5 kg/m3
19795 kPa	1000.5 kg/m3
19824 kPa	1000.4 kg/m3
19849 kPa	1000.5 kg/m3
19873 kPa	1000.6 kg/m3
19904 kPa	1000.6 kg/m3
19928 kPa	1000.6 kg/m3
19952 kPa	1000.6 kg/m3
19977 kPa	1000.5 kg/m3
20006 kPa	1000.7 kg/m3
20031 kPa	1000.6 kg/m3
20056 kPa	1000.7 kg/m3
20081 kPa	1000.6 kg/m3
20111 kPa	1000.7 kg/m3
20136 kPa	1000.8 kg/m3
20162 kPa	1000.8 kg/m3
20192 kPa	1000.7 kg/m3
20217 kPa	1000.9 kg/m3
20248 kPa	1000.8 kg/m3
20274 kPa	1000.8 kg/m3
20299 kPa	1000.9 kg/m3
20324 kPa	1000.8 kg/m3
20350 kPa	1000.8 kg/m3
20381 kPa	1000.8 kg/m3
20406 kPa	1000.9 kg/m3
20432 kPa	1000.9 kg/m3
20463 kPa	1000.9 kg/m3
20489 kPa	1000.9 kg/m3
20515 kPa	1000.8 kg/m3
20547 kPa	1000.9 kg/m3
20573 kPa	1001 kg/m3
20600 kPa	1000.9 kg/m3
20627 kPa	1001 kg/m3
20658 kPa	1001 kg/m3
20685 kPa	1001.1 kg/m3
20716 kPa	1001 kg/m3
20743 kPa	1001 kg/m3
20770 kPa	1001 kg/m3
20797 kPa	1001 kg/m3
20829 kPa	1001 kg/m3
